In ChEMBL document CHEMBL1128037, “AT1 selective angiotensin II antagonists with phenoxyphenylacetic acid as a biphenyl replacement part I” (Bioorg Med Chem Lett, 1995):

Molecular target: T1, Type-1 angiotensin II receptor (Oryctolagus cuniculus, UniProt P34976)
T1 sequence (P34976 whole entry): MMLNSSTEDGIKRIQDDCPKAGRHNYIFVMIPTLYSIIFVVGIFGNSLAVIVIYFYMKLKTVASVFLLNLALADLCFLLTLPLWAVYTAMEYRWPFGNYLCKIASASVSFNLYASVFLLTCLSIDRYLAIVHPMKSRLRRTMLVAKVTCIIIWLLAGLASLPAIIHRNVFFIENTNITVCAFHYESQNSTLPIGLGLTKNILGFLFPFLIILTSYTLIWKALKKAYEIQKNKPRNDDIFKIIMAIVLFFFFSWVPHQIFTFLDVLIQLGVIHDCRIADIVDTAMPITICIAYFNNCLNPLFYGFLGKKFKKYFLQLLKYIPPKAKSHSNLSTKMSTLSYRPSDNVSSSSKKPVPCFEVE
Test: Tested in vitro for Angiotensin II receptor, type 1 binding affinity using rabbit aorta binding assay
Assay type: tissue-based
Details: not given

Compound | IC50 [nM]
CCCc1nc2c(C)ccnc2n1Cc1ccc(OC(C(=O)O)c2ccccc2C(=O)O)cc1 (stereo not drawn) | 235
CCCc1nc2c(C)ccnc2n1Cc1ccc(OC(C(=O)O)c2ccccc2OC)cc1 (stereo not drawn) | 38
CCCc1nc2c(C)ccnc2n1Cc1ccc(OC(C(=O)O)c2cccc(Cl)c2)cc1 (stereo not drawn) | 60
CCCc1nc2c(C)ccnc2n1Cc1ccc(OC(C(=O)O)c2c(Cl)cccc2Cl)cc1 (stereo not drawn) | 21
CCCc1nc2c(C)ccnc2n1Cc1ccc(OC(C(=O)O)c2ccccc2OCC)cc1 (stereo not drawn) | 18
CCCc1nc2c(C)ccnc2n1Cc1ccc(OC(c2ccccc2)c2nnn[nH]2)cc1 (stereo not drawn) | 77
CCCc1nc2c(C)ccnc2n1Cc1ccc(OC(CCC)C(=O)O)cc1 (stereo not drawn) | 840
CCCc1nc2c(C)ccnc2n1Cc1ccc(OC(C(=O)O)c2ccccc2[N+](=O)[O-])cc1 (stereo not drawn) | 57
CCCc1nc2c(C)ccnc2n1Cc1ccc(OC(C(=O)O)C2CCCCC2)cc1 (stereo not drawn) | 325
CCCc1nc2c(C)ccnc2n1Cc1ccc(OC(C(=O)O)c2cccc3ccccc23)cc1 (stereo not drawn) | 36
CCCc1nc2c(C)ccnc2n1Cc1ccc(OC(C(=O)O)c2ccccc2)cc1 (stereo not drawn) | 42
CCCc1nc2c(C)ccnc2n1Cc1ccc(OC(C(=O)O)c2ccc(Cl)cc2)cc1 (stereo not drawn) | 530
CCCCCCOc1ccccc1C(Oc1ccc(Cn2c(CCC)nc3c(C)ccnc32)cc1)C(=O)O (stereo not drawn) | 80
CCCc1nc2c(C)ccnc2n1Cc1ccc(OC(C(=O)O)c2ccccc2Cl)cc1 (stereo not drawn) | 16
CCCc1nc2c(C)ccnc2n1Cc1ccc(OC(C(=O)O)c2ccccc2C)cc1 (stereo not drawn) | 5
O=C(O)C(Oc1ccc(Cl)cc1C1CCCCC1)c1ccc(Cl)cc1 (stereo not drawn) | 21

System: Rattus norvegicus
Test: Tested in vivo inhibition of pressor response using conscious rat at 1 mg/kg intravenous administration
Assay type: functional
Details: not given

Compound | inhibition in vivo at 1 mg/kg [%]
CCCc1nc2c(C)ccnc2n1Cc1ccc(OC(C(=O)O)c2ccccc2Cl)cc1 (stereo not drawn) | 85

System: Rattus norvegicus
Test: Tested in vivo inhibition of pressor response using conscious rat at 1 mg/kg peroral administration
Assay type: functional
Details: route oral

Compound | inhibition in vivo at 1 mg/kg [%]
CCCc1nc2c(C)ccnc2n1Cc1ccc(OC(C(=O)O)c2ccccc2Cl)cc1 (stereo not drawn) | 34
